Measurements published in US20060154927A1 (priority 2003, published 2006).
Read-outs that look alike come from different tables or passages of the source.

Test system: Pyricularia oryzae
Type: in vivo
Settings: individual active compound, rice seedlings cultivar Tai-Nong 67, protective spray, evaluated 6 days after inoculation

| Compound | Efficacy in % of the untreated control (1 ppm in the spray liquor) [%] | Efficacy in % of the untreated control (0.25 ppm in the spray liquor) [%] | Efficacy in % of the untreated control (4 ppm in the spray liquor) [%] |
| --- | --- | --- | --- |
| C[C@H](Nc1c(-c2c(F)cc(F)cc2F)c(Cl)nc2ncnn12)C(F)(F)F [B] | 22 |  |  |
| COc1ccc(C(=CC(=O)N2CCOCC2)c2ccc(F)cc2)cc1OC [IIb, 3-(4-fluorophenyl)-3-(3,4-dimethoxyphenyl)-1-morpholin-4-ylpropenone] |  | 0 | 0 |
| CC1CCN(c2c(-c3c(F)cc(F)cc3F)c(Cl)nc3ncnn23)CC1 [I, 5-chloro-7-(4-methylpiperidin-1-yl)-6-(2,4,6-trifluorophenyl)-[1,2,4]triazolo[1,5-a]pyrimidine] | 11 |  |  |
| COc1ccc(C(=CC(=O)N2CCOCC2)c2ccc(Cl)cc2)cc1OC [IIa, 3-(4-chlorophenyl)-3-(3,4-dimethoxyphenyl)-1-morpholin-4-ylpropenone] |  | 0 | 0 |
| CC1CCN(c2c(-c3c(F)cccc3Cl)c(Cl)nc3ncnn23)CC1 [A] | 11 |  |  |
